Results on 18 compounds are retold here after patent US20160272617A1, “SUBSTITUTED PHENYLALANINE DERIVATIVES” (BAYER PHARMA AKTIENGESELLSCHAFT, priority 2013, published 2016).

One assay deals with T1, human factor XIa (Homo sapiens, UniProt P03951).
T1 construct: purchased Kordia
As to the kind of experiment: Measurement of FXIa inhibition (fluorogenic peptide substrate Boc-Glu(OBzl)-Ala-Arg-AMC). The following applies: factor XIa from Kordia, 15 min preincubation, 30 min at 22° C., fluorescence. It counts as biochemical. The method, boiled down: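 Released AMC fluorescence (360/460 nm) read after 30 min at 22 °C. The reaction was started with Boc-Glu(OBzl)-Ala-Arg-AMC (10 μM stock) after a 15 min preincubation of the enzyme (0.45 nM stock) with compound (final 50 μM to 0.00013 μM).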

In another assay the test system is human and animal plasma. Description: Determination of anticoagulatory activity: activated partial thromboplastin time (aPTT) in plasma. To be noted: concentration of test substance which brings about a 1.5-fold extension of the aPTT; plasma species not given. The method, boiled down:
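Citrated plasma (1:9, 0.11 M citrate; 4000 g, 15 min) from human or animal blood incubated with test compound and cephalin/kaolin PTT reagent for 3 min at 37° C.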

Where a name gives a salt, the structure may show the parent alone.

T1 sequence (P03951 388-625 limits assumed): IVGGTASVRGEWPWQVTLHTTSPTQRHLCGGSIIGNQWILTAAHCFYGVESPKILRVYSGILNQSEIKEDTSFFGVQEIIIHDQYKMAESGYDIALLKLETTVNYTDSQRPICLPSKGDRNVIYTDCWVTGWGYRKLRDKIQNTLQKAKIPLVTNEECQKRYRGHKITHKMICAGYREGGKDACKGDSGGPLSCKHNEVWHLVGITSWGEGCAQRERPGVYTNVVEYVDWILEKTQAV
T1 sequence (P03951 19-387 partner limits assumed): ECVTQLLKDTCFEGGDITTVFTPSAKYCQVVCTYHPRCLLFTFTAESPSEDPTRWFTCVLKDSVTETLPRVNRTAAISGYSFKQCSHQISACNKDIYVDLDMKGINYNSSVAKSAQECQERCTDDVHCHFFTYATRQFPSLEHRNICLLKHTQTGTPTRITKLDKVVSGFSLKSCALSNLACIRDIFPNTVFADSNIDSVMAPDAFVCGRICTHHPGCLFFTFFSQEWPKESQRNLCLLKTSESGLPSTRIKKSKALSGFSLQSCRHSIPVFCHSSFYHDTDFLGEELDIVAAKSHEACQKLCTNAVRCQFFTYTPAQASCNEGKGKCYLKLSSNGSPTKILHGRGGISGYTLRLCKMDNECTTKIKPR

For the compound `Cc1cc(C(=O)NC2CCN(C)CC2)ccc1-c1ccc(C[C@H](NC(=O)[C@H]2CC[C@H](CN)CC2)C(=O)Nc2ccc(-c3nn[nH]n3)cc2)cc1` [Example 42, 4′-[(2S)-2-({[trans-4-(Aminomethyl)cyclohexyl]carbonyl}amino)-3-oxo-3-{[4-(2H-tetrazol-5-yl)phenyl]amino}propyl]-2-methyl-N-(1-methylpiperidin-4-yl)biphenyl-4-carboxamide hydrochloride], the concentration for half-maximal inhibition (IC50) at human factor XIa amounted to 3.6 nM. Moreover, the “aPTT” value in the assay on human and animal plasma was determined as 0.1 µmol/L.
For `Cc1cc(C(=O)NC2C3CNCC32)ccc1-c1ccc(C[C@H](NC(=O)C2CCC(CN)CC2)C(=O)Nc2ccc(-c3nn[nH]n3)cc2)cc1` (stereo partly drawn) [Example 43, 4′-[(2S)-2-({[trans-4-(Aminomethyl)cyclohexyl]carbonyl}amino)-3-oxo-3-{[4-(2H-tetrazol-5-yl)phenyl]amino}propyl]-N-(3-azabicyclo[3.1.0]hex-6-yl)-2-methylbiphenyl-4-carboxamide hydrochloride] the same measures were 3.3 nM and 0.06 µmol/L.
`Cc1cc(C(=O)NC2CC3CCC(C2)N3C)ccc1-c1ccc(C[C@H](NC(=O)C2CCC(CN)CC2)C(=O)Nc2ccc(-c3nn[nH]n3)cc2)cc1` (stereo partly drawn) [Example 44, 4′-[(2S)-2-({[trans-4-(Aminomethyl)cyclohexyl]carbonyl}amino)-3-oxo-3-{[4-(2H-tetrazol-5-yl)phenyl]amino}propyl]-2-methyl-N-(8-methyl-8-azabicyclo[3.2.1]oct-3-yl)biphenyl-4-carboxamide hydrochloride]: on human factor XIa, the IC50 was 5.7 nM. For the same compound, in the assay with human and animal plasma, the “aPTT” value came out at 0.11 µmol/L.
Taken in the same sequence, the figures for `NC[C@H]1CC[C@H](C(=O)N[C@@H](Cc2ccc(-c3ccc(C(=O)NC4CCNCC4)c(F)c3)cc2)C(=O)Nc2ccc(-c3nn[nH]n3)cc2)CC1` [Example 45, 4′-[(2S)-2-({[trans-4-(Aminomethyl)cyclohexyl]carbonyl}amino)-3-oxo-3-{[4-(2H-tetrazol-5-yl)phenyl]amino}propyl]-3-fluoro-N-(piperidin-4-yl)biphenyl-4-carboxamide hydrochloride] were 6.2 nM and 0.14 µmol/L.
Compound `Cc1cc(C(=O)NC2CCN(CC(F)(F)F)CC2)ccc1-c1ccc(C[C@H](NC(=O)[C@H]2CC[C@H](CN)CC2)C(=O)Nc2ccc(-c3nn[nH]n3)cc2)cc1` [Example 46, 4′-[(2S)-2-({[trans-4-(Aminomethyl)cyclohexyl]carbonyl}amino)-3-oxo-3-{[4-(2H-tetrazol-5-yl)phenyl]amino}propyl]-2-methyl-N-[1-(2,2,2-trifluoroethyl)piperidin-4-yl]biphenyl-4-carboxamide hydrochloride] came in with a half-inhibitory concentration (IC50) on human factor XIa of 3.6 nM. In addition, the “aPTT” value in the assay on human and animal plasma worked out at 0.22 µmol/L.
Taken in the same sequence, the figures for `NC[C@H]1CC[C@H](C(=O)N[C@@H](Cc2ccc(-c3ccc(C(=O)N4CCNCC4)cc3)cc2)C(=O)Nc2ccc(-c3nn[nH]n3)cc2)CC1` [Example 47, trans-4-(Aminomethyl)-N-[(2S)-1-oxo-3-[4′-(piperazin-1-ylcarbonyl)biphenyl-4-yl]-1-{[4-(2H-tetrazol-5-yl)phenyl]amino}propan-2-yl]cyclohexanecarboxamide trifluoroacetate] were 16 nM and 0.51 µmol/L.
Compound `Cc1cc(C(=O)NC2CCNCC2)ccc1-c1ccc(C[C@H](NC(=O)[C@H]2CC[C@H](CN)CC2)C(=O)Nc2ccc(-c3nc(C(F)(F)F)n[nH]3)cc2)cc1` [Example 48, 4′-[(2S)-2-({[trans-4-(Aminomethyl)cyclohexyl]carbonyl}amino)-3-oxo-3-({4-[3-(trifluoromethyl)-1H-1,2,4-triazol-5-yl]phenyl}amino)propyl]-2-methyl-N-(piperidin-4-yl)biphenyl-4-carboxamide hydrochloride] registered a half-inhibitory concentration (IC50) at human factor XIa of 2.7 nM. In addition, the “aPTT” value in the assay with human and animal plasma was 0.1 µmol/L.
For the compound `Cc1cc(C(=O)NC2CCNCC2)ccc1-c1ccc(C[C@H](NC(=O)[C@H]2CC[C@H](CN)CC2)C(=O)Nc2ccc(-c3nnc(Cl)[nH]3)cc2)cc1` [Example 49, 4′-[(2S)-2-({[trans-4-(Aminomethyl)cyclohexyl]carbonyl}amino)-3-{[4-(3-chloro-4H-1,2,4-triazol-5-yl)phenyl]amino}-3-oxopropyl]-2-methyl-N-(piperidin-4-yl)biphenyl-4-carboxamide hydrochloride], inhibition on human factor XIa was half-maximal at 2.1 nM (IC50). Also, the “aPTT” value in the assay with human and animal plasma amounted to 0.08 µmol/L.
Taken in the same sequence, the figures for `Cc1nc2ccc(NC(=O)[C@H](Cc3ccc(-c4ccc(C(=O)NC5CCNCC5)cc4C)cc3)NC(=O)[C@H]3CC[C@H](CN)CC3)cc2[nH]1` [Example 50, 4′-{(2S)-2-({[trans-4-(Aminomethyl)cyclohexyl]carbonyl}amino)-3-[(2-methyl-1H-benzimidazol-6-yl)amino]-3-oxopropyl}-2-methyl-N-(piperidin-4-yl)biphenyl-4-carboxamide hydrochloride] were 8.3 nM and 0.16 µmol/L.
Taken in the same sequence, the figures for `Cc1cc(C(=O)NC2CCNCC2)ccc1-c1ccc(C[C@H](NC(=O)[C@H]2CC[C@H](CN)CC2)C(=O)Nc2ccc3[nH]c(-c4ccccn4)nc3c2)cc1` [Example 51, 4′-[(2S)-2-({[trans-4-(Aminomethyl)cyclohexyl]carbonyl}amino)-3-oxo-3-{[2-(pyridin-2-yl)-1H-benzimidazol-5-yl]amino}propyl]-2-methyl-N-(piperidin-4-yl)biphenyl-4-carboxamide hydrochloride] were 11 nM and 0.44 µmol/L.
With `Cc1cc(C(=O)NC2CCNCC2)ccc1-c1ccc(C[C@H](NC(=O)[C@H]2CC[C@H](CN)CC2)C(=O)Nc2ccc3nc(C(F)(F)F)[nH]c3c2)cc1` [Example 52, 4′-[(2S)-2-({[trans-4-(Aminomethyl)cyclohexyl]carbonyl}amino)-3-oxo-3-{[2-(trifluoromethyl)-1H-benzimidazol-6-yl]amino}propyl]-2-methyl-N-(piperidin-4-yl)biphenyl-4-carboxamide hydrochloride], the IC50 on human factor XIa turned out to be 14 nM. For the same compound, the “aPTT” value in the assay on human and animal plasma worked out at 0.2 µmol/L.
For `Cc1cc(C(=O)NC2CCNCC2)ccc1-c1ccc(C[C@H](NC(=O)[C@H]2CC[C@H](CN)CC2)C(=O)Nc2ccc3[nH]c(=O)[nH]c3c2)cc1` [Example 53, 4′-{(2S)-2-({[trans-4-(Aminomethyl)cyclohexyl]carbonyl}amino)-3-oxo-3-[(2-oxo-2,3-dihydro-1H-benzimidazol-5-yl)amino]propyl}-2-methyl-N-(piperidin-4-yl)biphenyl-4-carboxamide hydrochloride] the same measures were 16 nM and 0.16 µmol/L.
For `COCc1nnc(-c2ccc(NC(=O)[C@H](Cc3ccc(-c4ccc(C(=O)NC5CCNCC5)cc4C)cc3)NC(=O)[C@H]3CC[C@H](CN)CC3)cc2)[nH]1` [Example 54, 4′-[(2S)-2-({[trans-4-(Aminomethyl)cyclohexyl]carbonyl}amino)-3-({4-[3-(methoxymethyl)-4H-1,2,4-triazol-5-yl]phenyl}amino)-3-oxopropyl]-2-methyl-N-(piperidin-4-yl)biphenyl-4-carboxamide hydrochloride], the IC50 on human factor XIa came to 16 nM. In addition, the “aPTT” value in the assay with human and animal plasma was found to be 0.24 µmol/L.
For `Cc1cc(C(=O)NC2CCNCC2)ccc1-c1ccc(C[C@H](NC(=O)[C@H]2CC[C@H](CN)CC2)C(=O)Nc2ccc3[nH]c(=O)oc3c2)cc1` [Example 55, 4′-{(2S)-2-({[trans-4-(Aminomethyl)cyclohexyl]carbonyl}amino)-3-oxo-3-[(2-oxo-2,3-dihydro-1,3-benzoxazol-6-yl)amino]propyl}-2-methyl-N-(piperidin-4-yl)biphenyl-4-carboxamide hydrochloride] the same measures were 41 nM and 0.37 µmol/L.
Taken in the same sequence, the figures for `Cc1nnc(-c2ccc(NC(=O)[C@H](Cc3ccc(-c4ccc(C(=O)NC5CCNCC5)cc4C)cc3)NC(=O)[C@H]3CC[C@H](CN)CC3)cc2)[nH]1` [Example 56, 4′-[(2S)-2-({[trans-4-(Aminomethyl)cyclohexyl]carbonyl}amino)-3-{[4-(3-methyl-4H-1,2,4-triazol-5-yl)phenyl]amino}-3-oxopropyl]-2-methyl-N-(piperidin-4-yl)biphenyl-4-carboxamide hydrochloride] were 48 nM and 0.44 µmol/L.
Turning to `Cc1cc(C(=O)NC2CCNCC2)ccc1-c1ccc(C[C@H](NC(=O)[C@H]2CC[C@H](CN)CC2)C(=O)Nc2ccc3[nH]c(C(F)(F)C(F)(F)F)nc3c2)cc1` [Example 57, 4′-[(2S)-2-({[trans-4-(Aminomethyl)cyclohexyl]carbonyl}amino)-3-oxo-3-{[2-(pentafluoroethyl)-1H-benzimidazol-5-yl]amino}propyl]-2-methyl-N-(piperidin-4-yl)biphenyl-4-carboxamide hydrochloride], half-maximal inhibition at human factor XIa (IC50) was put at 8.4 nM. In the assay with human and animal plasma, the “aPTT” value came out at 0.44 µmol/L.
For `Cc1cc(C(=O)NC2CCNCC2)ccc1-c1ccc(C[C@H](NC(=O)[C@H]2CC[C@H](CN)CC2)C(=O)Nc2ccc3nc(-c4cccnc4)[nH]c3c2)cc1` [Example 59, 4′-[(2S)-2-({[trans-4-(Aminomethyl)cyclohexyl]carbonyl}amino)-3-oxo-3-{[2-(pyridin-3-yl)-1H-benzimidazol-6-yl]amino}propyl]-2-methyl-N-(piperidin-4-yl)biphenyl-4-carboxamide hydrochloride] the same measures were 34 nM and 0.51 µmol/L.
For `Cc1cc(C(=O)NC2CCNCC2)ccc1-c1ccc(C[C@H](NC(=O)[C@H]2CC[C@H](CN)CC2)C(=O)Nc2ccc3nc(-n4cccn4)[nH]c3c2)cc1` [Example 60, 4′-[(2S)-2-({[trans-4-(Aminomethyl)cyclohexyl]carbonyl}amino)-3-oxo-3-{[2-(1H-pyrazol-1-yl)-1H-benzimidazol-6-yl]amino}propyl]-2-methyl-N-(piperidin-4-yl)biphenyl-4-carboxamide hydrochloride] the same measures were 45 nM and 0.63 µmol/L.

The IC50 is the concentration that gives 50% inhibition. Read a high IC50 as weaker potency.
